Columns and labels:
[1] = format: physicochemical
Protocol: Lovastatin was encapsulated in MBP-lipid conjugate micelles at ratios ranging from about 1:1 to 1:50 mol:mol lovastatin:lipid using the phase separation technique. All preparations initially produced clear, colorless solutions, indicating complete solubilization of lovastatin by the lipid. However, over time, usually within about 24 hours, needle-like crystals were observed on the surface of the fluid. […] The crystals were confirmed to be lovastatin by HPLC analysis.

[2] = tested on: unloaded bones; conditions: infusion; cited from earlier work
[3] = tested on: myeloma cell; conditions: in vitro; cited from earlier work
[4] = tested on: panel of tumor cells; conditions: cited from earlier work
[5] = cited from earlier work
[6] = tested on: hindlimb unloaded rats; conditions: cited from earlier work

Compound: CC[C@H](C)C(=O)O[C@H]1C[C@@H](C)C=C2C=C[C@H](C)[C@H](CC[C@@H]3C[C@@H](O)CC(=O)O3)[C@H]21 [lovastatin]
- amount of stabilized lovastatin after ageing [1]: increased slightly
- lovastatin stabilized in micelles [1]: about 0.03 μg/μg of lipid
- lovastatin stabilized in micelles, molar ratio [1]: ~1:5 mol:mol lovastatin:lipid
- lovastatin encapsulated before free drug precipitates ([1]; micelles of MBP-based ligand-phospholipid conjugate, FIG. 9): about 0.03 μg of lovastatin/μg of lipid
- time until needle-like lovastatin crystals were observed ([1]; preparations 1:1 to 1:50 mol:mol lovastatin:lipid): ≤ 24 h

Compound: IGF-1: insulin-like growth factor, regulates bone formation
- dose required to demonstrate any protective effect against unloading [2]: 2 mg/kg/day

Compound: CC(C)C[C@H](NC(=O)[C@H](Cc1ccccc1)NC(=O)c1cnccn1)B(O)O [PS-341]
- inhibition of myeloma cell growth and survival [3]: potent inhibitor
- cytotoxicity [4]: cytotoxic
- side-effects in clinical use [5]: thrombocytopenia, peripheral neuropathy, hypotension, and, in severe cases, cardiovascular toxicity

Compound: TGF-β
- effect on bone formation in control animals ([6]; infusion 2 μg/kg/day, control animals): has no effect on bone formation
- effect on unloading-induced bone changes ([6]; infusion 2 μg/kg/day, hindlimb unloading in rats): corrects the decrease in bone mass, calcium content, osteoblast number and mineralization rate
- effect on indices of bone resorption ([6]; infusion, normal and unloaded rats): decreases the indices of bone resorption

From patent US20050053668A1, “Skeletally targeted nanoparticles” (Southwest Research Institute, priority 2003, published 2005)
